Source: publication PMC4434572, “Identification of novel drugs to target dormant micrometastases” (BMC Cancer, 2015)
pEC50: −log10 of the molar value. Read-outs that look alike come from different tables or passages of the source.

Legend:
4T1 Luc2-GFP cells = experiment: Orthotopic 4T1 syngeneic model of triple-negative breast cancer with natural lung metastasis; assay type: in vivo, BALB/c mice; conditions: for number of large multicellular micrometastases and vascularized macrometastases to the lung: i.p. or osmotic pump
Protocol: 4T1 Luc2-GFP cells (PerkinElmer, Waltham, MA) were cultured in DMEM high glucose media with 2 mM pyruvate, 2 mM glutamine, 2 % Pen/Strep and 10 % Cosmic Calf Serum (Mediatech, Manassas, VA). To prepare cells for injection they were removed from flasks, counted using the TC10 counting system (BioRad, Hercules, CA) and checked for viability. Cells were then washed with PBS, pelleted and taken up at a concentration of 75,000 cells/ml; 100 μl of cell suspension (7,500 cells) was injected subcutaneously (bevel side up) into mammary fat pad #4 of 8 weeks old female BALB/c mice (NCI National Laboratory Frederick/Charles River animal production program). All animals were weighed and tumors were measured using calipers three times weekly. Beginning one week after implantation, which is when micrometastatic cells begin to arrive in the lungs, animals were treated three times per week with intraperitoneal DT310 or DT320 at their NOAEL dose of 75 mg/kg three times week dissolved in saline or by osmotic pump. The osmotic pumps (Alzet #2004) delivered an NOAEL dose of 23.4 and 26.7 μg/h of DT310 and DT320, respectively, for 4 weeks and were implanted as directed subcutaneously posterior to scapulae. Docetaxel was delivered once weekly intraperitoneally at its MTD of 15 mg/kg and doxorubicin delivered once weekly at its MTD of 1 mg/kg in 5 % N-Methyl-2-pyrrolidone, 5 % Solutol HS, and 90 % saline. GFP positive cells were imaged with excitation of GFP emission using a Leica Model Z16 APO fluorescence microscope equipped for a wide field, a large depth of field and 0.57–9.2X zoom capability. GFP-positive objects were counted and scored as to whether they were […], clumps of less than ten cells without a visible vasculature, as determined by co-injection of tetramethylrhodamine labeled dextran (2 million MW).

[1] = system: 4T1 stem cells (CD44v3highALDH1high 4T1 cells); experiment: Tumor cell growth inhibition of sphere-derived cancer stem cells (CellTiter-Glo); assay type: cell-based, mouse; conditions: for Fold change: stem cell EC50 vs parental EC50
Protocol: Sphere formation to further increase the fraction of cancer stem cells was induced by suspending CD44v3highALDH1high 4T1 cells in 1:1 Matrigel/basal medium in a total of volume of 100 μl. Samples (5 × 10^4 cells) were then plated around the rims of wells in a 12-well plate and allowed to solidify at 37 °C for 10 min before 1 ml basal medium (with B27 plus 20 ng/mL EGF, 10 ng/mL FGF and 4 μg/mL insulin) was added. Medium was replenished every 3-days. Ten days after plating, spheres (tight, spherical, nonadherent masses >40 μm in diameter) per well were counted, and at least 100 spheres per group were measured. The number of spheres containing CD44v3highALDH1high 4T1 cells in each well and expressed as sphere forming units (SFU) as described previously. The number of SFUs per well was counted in triplicate wells for each condition.
To recover CD44v3highALDH1high 4T1 cells from the spheres, Matrigel–containing wells were treated with 1 mg/ml Dispase solution (Gibco). Spheres were then digested with trypsin and 0.05 % EDTA. CD44v3highALDH1high cells dissociated from spheres were counted by hemacytometer and replated to generate spheres of next generation. Serial passage of individual spheres was regularly performed in order to verify self-renewal capability of cells associated the spheres. Measurement of growth for CD44v3highALDH1high cells (dissociated from spheres) was also performed by incubating these cells in serum-free RPMI-1640 medium for 3-weeks using MTT-based growth assay as described previously.
To analyze tumor cell growth properties, sphere-derived CD44v3highALDH1high 4T1 cells were incubated in basal medium (with B27 plus 20 ng/mL EGF, 10 ng/mL FGF and 4 μg/mL insulin). Medium was replenished every 3-days. Twenty-one days after plating, the number of cell growth was then counted under a microscope at low magnification. In some cases, these sphere-derived CD44v3highALDH1high 4T1 cells were also treated with DT compounds for 5 days or doxorubicin (range 1 μM to 1 mM) for 5 days at 37 °C. The CellTiter-Glo® Luminescent Cell Viability Assay (Promega, Madison, WI) was utilized to determine the number of metabolically active cells based on the quantification of adenosine triphosphate (ATP). The percentage of […] relative to untreated controls was plotted as a linear function of drug concentration. The 50 % inhibitory concentration (IC50) was identified as the concentration of drug required to achieve a 50 % growth inhibition relative to untreated controls.
A stem cell–enriched cell population was prepared as described previously by sorting for ALDH1 and CD44v3. The identification of aldehyde dehydrogenase1 (ALDH1) activity from tumor–derived 4T1 Luc2-GFP cells (PerkinElmer, Waltham, MA) was conducted using the ALDEFLUOR kit (StemCell Technologies, Durham, NC). Specifically, tumor cells were suspended in ALDEFLUOR assay buffer containing ALDH1 substrate (BAAA, […] per 1 × 10^6 cells) and incubated for 30 min at 37 °C. As a negative control, 4T1 cells were treated with a specific ALDH1 inhibitor, […] diethylaminobenzaldehyde (DEAB). Next, for labeling cell surface marker, tumor–derived 4T1 cells were suspended in 100 μl ALDEFLUOR buffer followed by incubating with 20 μl allophycocyanin (APC)-labeled anti-CD44v3 antibody (recognizing the v3-specific domain of CD44) or APC-labeled normal mouse IgG (as a control) (BD Bioscience, San Jose, CA) for 15 min at 4 °C. For FACS sorting, tumor cells were incubated in PBS buffer followed by FACS (BD FACS Aria llu, BD Bioscience, San Jose, CA) sorting using dual-wavelength analysis as described previously. The parental cell line contained 2 % CD44v3highALDH1high cells but the final sorted cells contained 18 % CD44v3highALDH1high cells, a 9-fold enrichment.

[2] = i.p. injection or osmotic pump, vs untreated
[3] = suspension culture, 5 days, read-out: EC50 4T1 stem cells in suspension culture

Structure (SMILES)	primary tumor growth (4T1 Luc2-GFP cells; administered i.p. at MTD)	number of large multicellular micrometastases and vascularized macrometastases to the lung (4T1 Luc2-GFP cells)	pEC50 ([1]; Mus musculus, 4T1, 120 h, suspension culture, 5 days, read-out: EC50 4T1 stem cells in suspension culture)	Fold change [1]	primary tumor growth (4T1 Luc2-GFP cells; [2])	pEC50 ([1]; grown on SISgel, read-out: EC50 4T1 stem cells grown on SISgel)	pEC50 [1, 3]	number of single micrometastatic cells and small micrometastases in lung (4T1 Luc2-GFP cells; osmotic pump administration)
COc1cccc2c1C(=O)c1c(O)c3c(c(O)c1C2=O)C[C@@](O)(C(=O)CO)C[C@@H]3O[C@H]1C[C@H](N)[C@H](O)[C@H](C)O1 [Doxorubicin, reference compound]	small effect	only minimal effects	3.20	134.0	–	–	–	–
O=S(=O)([O-])c1cc(O)c2c(O)c(N=Nc3cccc4ccccc34)c(S(=O)(=O)[O-])cc2c1.[Na+].[Na+] [DT320, 4,5-Dihydroxy-3-(1-naphthalenylazo)-2,7-naphthalenedisulfonic acid disodium salt]	–	–	–	2.5	significant reduction	4.15	4.30	–
O=S(=O)([O-])c1ccc2c(N=Nc3cccc4ccccc34)c(O)c(S(=O)(=O)[O-])cc2c1.[Na+].[Na+] [DT310, 4-(1-naphthalenylhydrazinylidene) -3-oxonaphthalene-2,7-disulfonic acid]	–	most sharply	–	9.8	significant reduction	–	3.85	significant effect
